Measured values reported in patent US11485980B2, “Method of meristem excision and transformation” (Monsanto Technology LLC, priority 2007, dated 2022).

Key:
[1] = tested on: cotton explants; test: Selection of transformed cotton explants with selective agent in tissue culture medium
[2] = tested on: cotton explants; test: Spectinomycin in co-cultivation medium during Agrobacterium-mediated transformation; conditions: spectinomycin 50-100 ppm included in the co-cultivation medium; FIG. 8
Experimental: After the PlantconTM was closed, it was inserted into an appropriately sized holder, which was placed into a sonicator (e.g. L&R Ultrasonics QS140; L&R Manufacturing Co., […].; or a Honda […] sonicator, Honda, Denshi Japan). […] Sigma 526-36-23; Sigma Chemical Co, St. Louis, Mo.). After up to 5 min of sonication, the PlantconTM was placed securely on a shaker at 65-70 rpm or higher for 10 min for incubation. After inoculation, the Agrobacterium inoculum was removed from the PlantconTM. […] The INO medium may also be supplemented with plant growth regulators such as gibberellins (GA3), auxins (e.g. NAA, IBA, IAA, 2,4-D, dicamba, etc), cytokinins (e.g.

Row | Structure (SMILES) | Stably transformed plants produced at concentrations (ppm) ([1]; selection agent in tissue culture medium, machine excised cotton explants after Agrobacterium co-cultivation) | Appearance of non-transformed tissues under selection ([1]; spectinomycin selection, transformed tissues green and properly developing, FIG. 5) | Effect on transformation frequency (TF) [2]
1 | COc1c(Cl)ccc(Cl)c1C(=O)O [dicamba] | 0.3 ppm |  | 
2 | CN[C@@H]1[C@H](O)[C@H](NC)[C@H]2O[C@@]3(O)C(=O)C[C@@H](C)O[C@H]3O[C@@H]2[C@H]1O [spectinomycin] |  | bleached and often malformed | enhanced TF
